Test results published in ChEMBL document CHEMBL3991601, “The target landscape of clinical kinase drugs” (Science, 2017).
Activity calls are given as the source filed them. Rule as the data show it, for most assays here: actives have a measured Kd and inactives only a lower limit.

Tests used:
[1] = target: Serine/threonine-protein kinase SIK2 (Homo sapiens, UniProt Q9H0K1)
[2] = target: T1, cGMP-dependent protein kinase 1 (Homo sapiens, UniProt Q13976)
T1 sequence (Q13976 whole entry): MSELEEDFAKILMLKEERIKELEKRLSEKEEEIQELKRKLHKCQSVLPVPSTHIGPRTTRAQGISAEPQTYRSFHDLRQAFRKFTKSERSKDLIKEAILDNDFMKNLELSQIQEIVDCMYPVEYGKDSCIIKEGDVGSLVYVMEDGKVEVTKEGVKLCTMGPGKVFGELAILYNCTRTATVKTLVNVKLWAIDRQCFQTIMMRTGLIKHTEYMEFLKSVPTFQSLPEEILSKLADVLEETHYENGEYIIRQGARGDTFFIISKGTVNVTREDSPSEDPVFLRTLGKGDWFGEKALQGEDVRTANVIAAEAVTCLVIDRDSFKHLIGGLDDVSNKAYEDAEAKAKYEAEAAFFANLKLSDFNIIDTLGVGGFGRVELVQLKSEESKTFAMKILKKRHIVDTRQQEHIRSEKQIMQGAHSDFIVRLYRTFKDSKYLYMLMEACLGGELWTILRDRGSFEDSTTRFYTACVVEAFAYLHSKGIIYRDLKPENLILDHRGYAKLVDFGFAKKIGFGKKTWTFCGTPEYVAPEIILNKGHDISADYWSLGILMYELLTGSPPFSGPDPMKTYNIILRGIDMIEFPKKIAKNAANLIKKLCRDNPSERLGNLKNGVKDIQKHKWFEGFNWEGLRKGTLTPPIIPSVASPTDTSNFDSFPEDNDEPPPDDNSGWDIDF

Activin receptor type-1B = target: T2, Activin receptor type-1B (Homo sapiens, UniProt P36896)
T2 sequence (P36896 whole entry): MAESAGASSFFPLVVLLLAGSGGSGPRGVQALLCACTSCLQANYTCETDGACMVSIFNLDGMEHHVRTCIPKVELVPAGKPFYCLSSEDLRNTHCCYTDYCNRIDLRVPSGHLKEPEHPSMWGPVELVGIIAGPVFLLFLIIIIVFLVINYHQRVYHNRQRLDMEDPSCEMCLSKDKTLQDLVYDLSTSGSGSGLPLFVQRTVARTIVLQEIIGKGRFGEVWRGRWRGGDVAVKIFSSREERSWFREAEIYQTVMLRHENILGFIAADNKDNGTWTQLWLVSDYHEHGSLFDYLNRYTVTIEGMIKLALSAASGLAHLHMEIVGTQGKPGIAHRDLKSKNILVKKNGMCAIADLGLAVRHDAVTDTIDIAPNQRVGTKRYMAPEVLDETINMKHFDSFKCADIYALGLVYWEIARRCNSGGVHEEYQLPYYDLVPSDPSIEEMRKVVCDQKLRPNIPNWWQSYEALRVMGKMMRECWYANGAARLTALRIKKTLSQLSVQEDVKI

Ephrin type-B receptor 2 = target: T3, Ephrin type-B receptor 2 (Homo sapiens, UniProt P29323)
T3 sequence (P29323 whole entry): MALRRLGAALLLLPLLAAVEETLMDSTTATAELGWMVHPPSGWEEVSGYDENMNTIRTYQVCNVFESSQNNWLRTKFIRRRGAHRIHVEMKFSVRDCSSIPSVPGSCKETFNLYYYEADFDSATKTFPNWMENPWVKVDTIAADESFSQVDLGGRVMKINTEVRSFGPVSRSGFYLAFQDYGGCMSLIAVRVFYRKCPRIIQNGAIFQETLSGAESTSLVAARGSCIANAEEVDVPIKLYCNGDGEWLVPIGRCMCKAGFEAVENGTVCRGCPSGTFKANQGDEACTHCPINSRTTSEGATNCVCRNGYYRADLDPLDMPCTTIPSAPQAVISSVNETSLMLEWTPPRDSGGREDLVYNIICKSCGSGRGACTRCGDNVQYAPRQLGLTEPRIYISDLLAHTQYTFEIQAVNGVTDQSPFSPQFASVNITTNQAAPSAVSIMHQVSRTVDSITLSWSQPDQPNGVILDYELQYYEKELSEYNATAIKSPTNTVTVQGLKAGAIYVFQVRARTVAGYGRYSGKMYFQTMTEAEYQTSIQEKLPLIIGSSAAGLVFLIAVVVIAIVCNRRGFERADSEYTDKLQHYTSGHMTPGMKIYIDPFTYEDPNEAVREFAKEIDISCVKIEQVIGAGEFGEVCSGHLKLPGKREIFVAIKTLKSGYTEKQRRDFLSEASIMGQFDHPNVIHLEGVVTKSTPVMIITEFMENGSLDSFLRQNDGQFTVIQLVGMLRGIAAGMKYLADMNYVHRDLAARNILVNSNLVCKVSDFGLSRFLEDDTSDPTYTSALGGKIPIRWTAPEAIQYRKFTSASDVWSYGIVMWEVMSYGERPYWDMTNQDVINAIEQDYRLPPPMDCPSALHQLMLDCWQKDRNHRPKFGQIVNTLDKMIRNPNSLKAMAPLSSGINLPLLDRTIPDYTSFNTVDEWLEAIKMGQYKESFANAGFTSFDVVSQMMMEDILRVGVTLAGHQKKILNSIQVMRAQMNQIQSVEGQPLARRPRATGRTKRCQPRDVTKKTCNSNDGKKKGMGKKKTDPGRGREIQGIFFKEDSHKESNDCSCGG

[3] = target: 26S proteasome regulatory subunit 6B (Homo sapiens, UniProt P43686)
Sequence of 26S proteasome regulatory subunit 6B (P43686 whole entry): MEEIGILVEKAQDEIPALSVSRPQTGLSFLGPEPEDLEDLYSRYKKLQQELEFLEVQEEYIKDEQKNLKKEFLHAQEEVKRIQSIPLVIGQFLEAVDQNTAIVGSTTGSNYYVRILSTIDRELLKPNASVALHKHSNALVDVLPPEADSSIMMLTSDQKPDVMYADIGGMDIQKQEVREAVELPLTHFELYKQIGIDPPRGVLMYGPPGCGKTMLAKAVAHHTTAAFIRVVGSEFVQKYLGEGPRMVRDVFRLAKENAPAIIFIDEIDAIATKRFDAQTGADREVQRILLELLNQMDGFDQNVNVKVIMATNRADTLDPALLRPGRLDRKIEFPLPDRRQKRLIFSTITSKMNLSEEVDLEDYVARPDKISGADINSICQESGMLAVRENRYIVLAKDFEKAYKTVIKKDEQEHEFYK

[4] = target: Tyrosine-protein kinase HCK (Homo sapiens, UniProt P08631)
Sequence of Tyrosine-protein kinase HCK (P08631 whole entry): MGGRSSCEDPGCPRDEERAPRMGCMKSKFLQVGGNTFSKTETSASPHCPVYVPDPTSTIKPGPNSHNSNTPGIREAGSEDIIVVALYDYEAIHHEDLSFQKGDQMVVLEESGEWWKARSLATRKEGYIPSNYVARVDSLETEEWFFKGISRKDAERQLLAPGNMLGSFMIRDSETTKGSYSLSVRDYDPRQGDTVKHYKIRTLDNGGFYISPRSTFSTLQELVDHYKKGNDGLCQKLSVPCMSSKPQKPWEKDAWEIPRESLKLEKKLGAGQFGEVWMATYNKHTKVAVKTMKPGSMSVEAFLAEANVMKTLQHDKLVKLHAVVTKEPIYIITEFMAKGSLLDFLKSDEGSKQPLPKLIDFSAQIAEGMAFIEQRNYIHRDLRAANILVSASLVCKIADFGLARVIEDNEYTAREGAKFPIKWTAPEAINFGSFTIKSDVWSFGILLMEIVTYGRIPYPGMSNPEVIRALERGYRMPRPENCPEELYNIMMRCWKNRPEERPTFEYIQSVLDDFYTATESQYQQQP
Also: in the data inactive means no Kd found up to 30 µM.

Sequence of Serine/threonine-protein kinase SIK2 (Q9H0K1 whole entry): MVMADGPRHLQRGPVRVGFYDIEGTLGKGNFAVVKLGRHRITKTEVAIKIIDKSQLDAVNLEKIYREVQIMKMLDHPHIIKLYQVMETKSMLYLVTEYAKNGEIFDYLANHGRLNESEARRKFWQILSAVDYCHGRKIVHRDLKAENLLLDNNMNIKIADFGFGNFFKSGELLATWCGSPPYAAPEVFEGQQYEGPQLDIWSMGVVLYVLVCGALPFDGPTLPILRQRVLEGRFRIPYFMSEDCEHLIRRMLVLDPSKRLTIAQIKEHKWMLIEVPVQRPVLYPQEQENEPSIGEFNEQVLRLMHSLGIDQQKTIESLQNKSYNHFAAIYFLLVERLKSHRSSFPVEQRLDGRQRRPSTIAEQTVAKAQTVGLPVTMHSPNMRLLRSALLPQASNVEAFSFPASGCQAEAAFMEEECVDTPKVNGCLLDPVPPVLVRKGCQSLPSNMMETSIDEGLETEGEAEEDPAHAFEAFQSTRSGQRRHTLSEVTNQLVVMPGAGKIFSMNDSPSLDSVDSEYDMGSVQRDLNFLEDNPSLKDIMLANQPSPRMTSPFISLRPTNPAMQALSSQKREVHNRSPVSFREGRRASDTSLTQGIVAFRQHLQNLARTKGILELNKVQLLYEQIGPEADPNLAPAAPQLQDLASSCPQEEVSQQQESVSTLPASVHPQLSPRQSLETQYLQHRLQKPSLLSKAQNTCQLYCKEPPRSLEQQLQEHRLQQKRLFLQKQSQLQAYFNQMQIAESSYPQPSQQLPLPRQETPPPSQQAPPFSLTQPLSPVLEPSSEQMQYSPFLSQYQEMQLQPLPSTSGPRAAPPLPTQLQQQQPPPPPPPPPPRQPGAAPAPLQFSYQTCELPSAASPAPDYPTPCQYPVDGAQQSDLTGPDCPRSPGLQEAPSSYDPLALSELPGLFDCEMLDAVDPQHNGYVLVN

Kd [1] | Kd [2] | Kd (Activin receptor type-1B) | Kd (Ephrin type-B receptor 2) | Kd [3] | Kd [4] | SMILES
> 30 µM (inactive) | > 30 µM (inactive) | > 30 µM (inactive) | > 30 µM (inactive) | > 30 µM (inactive) | 0.623 µM (active) | Nc1ncnc2c1c(-c1cccc(OCc3ccccc3)c1)cn2[C@H]1C[C@@H](CN2CCC2)C1 [AEW-541]
> 30 µM (inactive) | > 30 µM (inactive) | > 30 µM (inactive) | > 30 µM (inactive) | > 30 µM (inactive) | > 30 µM (inactive) | Cc1csc(-c2nnc(Nc3ccc(Oc4ncccc4-c4ccnc(N)n4)cc3)c3ccccc23)c1 [AMG-900]
> 30 µM (inactive) | > 30 µM (inactive) | > 30 µM (inactive) | > 30 µM (inactive) | > 30 µM (inactive) | > 30 µM (inactive) | Cc1cc(C(=O)NOCCO)c(Nc2ccc(I)cc2F)n(C)c1=O [AZD-8330]
 |  |  |  | > 30 µM (inactive) |  | C[C@@H](Oc1cc(-n2cnc3ccc(CN4CCN(C)CC4)cc32)sc1C(N)=O)c1ccccc1C(F)(F)F [GSK-461364]
0.904 µM (active) |  | 0.004 µM (active) | > 30 µM (inactive) | > 30 µM (inactive) | > 30 µM (inactive) | NC(=O)c1c(OCc2c(F)cc(Br)cc2F)nsc1NC(=O)NCCCCN1CCCC1 [OSI-632]

Second part, the compound before the results:

SMILES | Kd [1] | Kd [2] | Kd (Activin receptor type-1B) | Kd (Ephrin type-B receptor 2) | Kd [3] | Kd [4]
C[C@@H](Oc1cc(C(=O)Nc2ccc(C(=O)N3CCN(C)CC3)cc2)nnc1N)c1c(Cl)ccc(F)c1Cl | > 30 µM (inactive) | > 30 µM (inactive) | > 30 µM (inactive) | > 30 µM (inactive) | > 30 µM (inactive) | > 30 µM (inactive)
C[C@H]1CNCCCN1S(=O)(=O)c1cccc2cncc(F)c12 | > 30 µM (inactive) | > 30 µM (inactive) | > 30 µM (inactive) | > 30 µM (inactive) | > 30 µM (inactive) | > 30 µM (inactive)
CC(=O)c1cnc2ccc(-c3cc(Cl)c(O)c(Cl)c3)nc2c1N[C@H]1CC[C@H](CN(C)C)CC1 | 0.24 µM (active) | > 30 µM (inactive) |  | 0.149 µM (active) | > 30 µM (inactive) | 0.116 µM (active)
CCNC(=O)C#Cc1ccc2c(c1)NC(=O)/C2=C(\Nc1ccc(CN(C)C)cc1)c1ccccc1 | 3.51 µM (active) | > 30 µM (inactive) | > 30 µM (inactive) | > 30 µM (inactive) | > 30 µM (inactive) | 0.9 µM (active)
C=CC(=O)N1CCC[C@H](n2c(=O)n(-c3ccc(Oc4ccccc4)cc3)c3c(N)ncnc32)C1 | > 30 µM (inactive) | > 30 µM (inactive) | > 30 µM (inactive) | > 30 µM (inactive) | > 30 µM (inactive) | 0.006 µM
Cc1nc2cc(-c3nn(C(C)C)c4ncnc(N)c34)ccc2o1 | > 30 µM (inactive) | > 30 µM (inactive) | 0.767 µM (active) | > 30 µM (inactive) | > 30 µM (inactive) | > 30 µM (inactive)
COCc1c(-c2ccc(NC(=O)Nc3cc(C(F)(F)F)ccc3F)c(F)c2)c2c(N)ncnn2c1CN1CCOCC1 | > 30 µM (inactive) | > 30 µM (inactive) | > 30 µM (inactive) | > 30 µM (inactive) | > 30 µM (inactive) | > 30 µM (inactive)
COc1cc(Nc2ncc3c(n2)-c2ccc(Cl)cc2C(c2c(F)cccc2OC)=NC3)ccc1C(=O)O [ALISERTIB] | > 30 µM (inactive) |  | > 30 µM (inactive) | > 30 µM (inactive) | > 30 µM (inactive) | 
Cc1nc(NC(=O)N2CCC[C@H]2C(N)=O)sc1-c1ccnc(C(C)(C)C(F)(F)F)c1 [ALPELISIB] | > 30 µM (inactive) | > 30 µM (inactive) | > 30 µM (inactive) | > 30 µM (inactive) | > 30 µM (inactive) | > 30 µM (inactive)
O=C(Nc1c[nH]nc1-c1nc2cc(CN3CCOCC3)ccc2[nH]1)NC1CC1 [AT-9283] | 0.03 µM (active) | > 30 µM (inactive) | 0.811 µM (active) | > 30 µM (inactive) | > 30 µM (inactive) | 0.664 µM (active)
C=CC(=O)Nc1cc2c(Nc3ccc(F)c(Cl)c3)ncnc2cc1C#CC(C)(C)N1CCN(C)CC1 [AV-412 FREE BASE] | > 30 µM (inactive) | > 30 µM (inactive) | > 30 µM (inactive) | > 30 µM (inactive) | > 30 µM (inactive) | > 30 µM (inactive)
CNC(=O)c1ccccc1Sc1ccc2c(/C=C/c3ccccn3)n[nH]c2c1 [AXITINIB] |  |  |  |  | > 30 µM (inactive) | 
COc1cc([C@@H]2c3cc4c(cc3[C@H](O)[C@H]3COC(=O)[C@@H]23)OCO4)cc(OC)c1OC [AXL-1717] | > 30 µM (inactive) | > 30 µM (inactive) | > 30 µM (inactive) | > 30 µM (inactive) | > 30 µM (inactive) | > 30 µM (inactive)
NC(=O)Nc1cc(-c2cccc(F)c2)sc1C(=O)N[C@H]1CCCNC1 [AZD-7762] | 0.007 µM (active) | > 30 µM (inactive) | > 30 µM (inactive) | > 30 µM (inactive) | > 30 µM (inactive) | 0.103 µM (active)
Cn1cnc2c(F)c(Nc3ccc(Br)cc3F)c(C(=O)NOCCO)cc21 [BINIMETINIB] | > 30 µM (inactive) | > 30 µM (inactive) | > 30 µM (inactive) | > 30 µM (inactive) | > 30 µM (inactive) | > 30 µM (inactive)
Cn1cc(C2=C(c3cn(C4CCN(Cc5ccccn5)CC4)c4ccccc34)C(=O)NC2=O)c2ccccc21 [ENZASTAURIN] |  |  |  |  | > 30 µM (inactive) | 
Cc1[nH]c(/C=C2\C(=O)Nc3ccccc32)c(C)c1CCC(=O)O [ORANTINIB] | > 30 µM (inactive) |  | > 30 µM (inactive) | > 30 µM (inactive) | > 30 µM (inactive) | 
CCOc1cc2ncc(C#N)c(Nc3ccc(F)c(Cl)c3)c2cc1NC(=O)/C=C/CN(C)C [PELITINIB] |  | > 30 µM (inactive) | > 30 µM (inactive) | > 30 µM (inactive) | > 30 µM (inactive) | 1.18 µM (active)
CC(=O)NCC(=O)N1[C@@H]2CC[C@H]1c1ccc(Nc3ncc(C(F)(F)F)c(NC4CCC4)n3)cc12 [PF-03814735] | 0.011 µM (active) |  | > 30 µM (inactive) | > 30 µM (inactive) | > 30 µM (inactive) | > 30 µM (inactive)
CNC(=O)c1cc(Oc2ccc(NC(=O)Nc3cc(C(C)(C)C)nn3-c3ccc4ncccc4c3)c(F)c2)ccn1 [REBASTINIB] | > 30 µM (inactive) | > 30 µM (inactive) | > 30 µM (inactive) | > 30 µM (inactive) | > 30 µM (inactive) | 
O=C(NOCCO)c1cc(CN2OCCCC2=O)c(F)c(F)c1Nc1ccc(I)cc1F [RO-4987655] |  |  |  |  | > 30 µM (inactive) | 
N#CC[C@H](C1CCCC1)n1cc(-c2ncnc3[nH]ccc23)cn1 [RUXOLITINIB] |  |  |  |  | > 30 µM (inactive) | 
